# Results taken from patent US20250177414A1, “COMBINATION THERAPIES FOR TREATMENT OF BREAST CANCER” (Genentech, Inc., priority 2023, published 2025).
# Entries after “also recorded” stand apart in the source; their conditions may differ. Where two headings read alike, the source gives them in different places.
# What was measured:
# [1] = system: patients with HR+/HER2− breast cancer; conditions: in combination with letrozole; cited from earlier work
# [2] = system: patients with HR+/HER2− breast cancer; conditions: in combination with fulvestrant; cited from earlier work
# patients with HR+ LA/mBC = conditions: published trials; cited from earlier work
# CYP2D6 = CYP2D6 (Homo sapiens, UniProt P10635); assay: In vitro CYP450 study; type: in vitro ADME
# pregnant rats = assay: Embryo-fetal development study; type: in vivo, rat
# CYP2C9 = CYP2C9 (Homo sapiens, UniProt P11712); assay: In vitro CYP450 study; type: in vitro ADME
# QTc interval = assay: Cardiac electrophysiology; type: in vivo, human; conditions: recommended approved dosage
# Source text: At the recommended approved dosage, a mean increase in the QTc interval of ≥20 ms is unlikely.
# CYP2C19 = CYP2C19 (Homo sapiens, UniProt P33261); assay: In vitro CYP450 study; type: in vitro ADME
# OAT2 = OAT2 (Homo sapiens, UniProt Q9Y694); assay: In vitro transporter study; type: in vitro ADME
# Aqueous solubility = type: physicochemical
# Source text: Inavolisib is a white to off-white, greyish pink, greyish orange, or greyish yellow powder or powder with lumps.
# MATE2K = MATE2K (Homo sapiens, UniProt Q86VL8); assay: In vitro transporter study; type: in vitro ADME
# Chain of MATE2K (Q86VL8 1-566 isoform Q86VL8-3): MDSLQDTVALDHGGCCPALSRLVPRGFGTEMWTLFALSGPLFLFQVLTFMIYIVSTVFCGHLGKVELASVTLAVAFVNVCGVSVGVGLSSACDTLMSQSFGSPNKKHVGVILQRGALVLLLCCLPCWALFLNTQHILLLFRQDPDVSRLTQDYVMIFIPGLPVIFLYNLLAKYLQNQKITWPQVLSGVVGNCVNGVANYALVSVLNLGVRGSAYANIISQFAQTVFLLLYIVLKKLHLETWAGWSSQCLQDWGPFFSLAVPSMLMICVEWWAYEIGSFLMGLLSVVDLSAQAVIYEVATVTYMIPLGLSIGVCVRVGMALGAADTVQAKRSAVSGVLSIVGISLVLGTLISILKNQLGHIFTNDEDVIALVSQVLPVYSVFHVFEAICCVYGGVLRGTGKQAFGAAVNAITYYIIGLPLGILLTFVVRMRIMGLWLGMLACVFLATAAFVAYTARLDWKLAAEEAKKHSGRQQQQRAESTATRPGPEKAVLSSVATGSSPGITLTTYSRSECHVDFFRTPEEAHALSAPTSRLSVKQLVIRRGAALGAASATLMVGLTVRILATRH
# OATP1B3 = OATP1B3 (Homo sapiens, UniProt Q9NPD5); assay: In vitro transporter study; type: in vitro ADME
# MATE1 = MATE1 (Homo sapiens, UniProt Q96FL8); assay: In vitro transporter study; type: in vitro ADME
# clinical = conditions: human, 9 mg/day
# liver = conditions: in vivo
# P-glycoprotein (P-gp) = P-glycoprotein (P-gp) (Homo sapiens, UniProt P08183); assay: In vitro transporter study; type: in vitro ADME
# Chain of P-glycoprotein (P-gp) (P08183 whole entry): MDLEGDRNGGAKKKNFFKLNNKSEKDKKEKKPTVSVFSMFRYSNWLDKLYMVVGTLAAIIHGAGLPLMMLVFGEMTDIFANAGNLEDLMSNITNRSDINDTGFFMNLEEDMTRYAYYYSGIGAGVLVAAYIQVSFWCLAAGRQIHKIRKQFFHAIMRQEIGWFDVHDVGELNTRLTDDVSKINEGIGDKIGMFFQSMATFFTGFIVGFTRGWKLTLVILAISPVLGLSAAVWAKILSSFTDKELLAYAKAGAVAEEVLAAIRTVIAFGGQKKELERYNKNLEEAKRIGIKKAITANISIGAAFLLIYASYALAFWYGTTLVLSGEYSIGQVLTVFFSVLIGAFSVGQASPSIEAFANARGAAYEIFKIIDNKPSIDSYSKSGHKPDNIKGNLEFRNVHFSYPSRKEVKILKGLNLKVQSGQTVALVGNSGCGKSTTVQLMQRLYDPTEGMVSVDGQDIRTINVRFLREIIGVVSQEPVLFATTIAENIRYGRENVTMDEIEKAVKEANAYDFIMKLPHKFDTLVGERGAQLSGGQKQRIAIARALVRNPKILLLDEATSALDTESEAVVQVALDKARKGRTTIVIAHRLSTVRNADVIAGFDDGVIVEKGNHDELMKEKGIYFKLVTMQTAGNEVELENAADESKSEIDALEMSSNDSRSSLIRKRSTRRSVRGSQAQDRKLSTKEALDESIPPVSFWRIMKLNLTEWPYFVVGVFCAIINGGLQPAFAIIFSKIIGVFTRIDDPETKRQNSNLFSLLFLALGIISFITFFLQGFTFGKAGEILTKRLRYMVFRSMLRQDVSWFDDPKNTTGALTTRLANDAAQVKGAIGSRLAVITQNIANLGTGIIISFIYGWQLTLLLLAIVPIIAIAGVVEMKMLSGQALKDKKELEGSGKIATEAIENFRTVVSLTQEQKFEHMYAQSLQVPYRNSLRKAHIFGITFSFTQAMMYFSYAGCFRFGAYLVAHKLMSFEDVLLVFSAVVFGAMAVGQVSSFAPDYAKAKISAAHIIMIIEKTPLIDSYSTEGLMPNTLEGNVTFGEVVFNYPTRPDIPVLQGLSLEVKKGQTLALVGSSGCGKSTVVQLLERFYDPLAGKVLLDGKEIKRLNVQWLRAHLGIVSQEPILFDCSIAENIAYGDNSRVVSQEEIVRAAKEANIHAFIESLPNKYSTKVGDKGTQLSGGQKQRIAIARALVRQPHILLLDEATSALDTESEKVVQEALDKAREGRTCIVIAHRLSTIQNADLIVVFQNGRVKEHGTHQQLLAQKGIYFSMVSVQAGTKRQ
# CYP2B6 = CYP2B6 (Homo sapiens, UniProt P20813); assay: In vitro CYP450 study; type: in vitro ADME
# Chain of CYP2B6 (P20813 whole entry): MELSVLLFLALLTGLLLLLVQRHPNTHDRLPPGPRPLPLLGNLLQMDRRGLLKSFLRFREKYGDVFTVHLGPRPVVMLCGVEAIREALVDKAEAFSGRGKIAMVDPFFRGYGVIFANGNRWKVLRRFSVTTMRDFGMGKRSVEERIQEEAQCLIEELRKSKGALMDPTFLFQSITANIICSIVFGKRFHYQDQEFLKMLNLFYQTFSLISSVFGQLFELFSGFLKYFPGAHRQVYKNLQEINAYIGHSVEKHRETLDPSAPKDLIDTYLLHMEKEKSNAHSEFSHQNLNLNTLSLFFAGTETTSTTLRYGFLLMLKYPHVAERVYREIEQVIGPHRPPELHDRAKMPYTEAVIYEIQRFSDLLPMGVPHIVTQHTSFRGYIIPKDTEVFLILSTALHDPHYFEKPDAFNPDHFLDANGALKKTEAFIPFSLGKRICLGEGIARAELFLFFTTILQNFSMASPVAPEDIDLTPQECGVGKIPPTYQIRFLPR
# rats = assay: Repeat-dose toxicity studies in rats; type: in vivo, rat
# OATP1B1 = OATP1B1 (Homo sapiens, UniProt Q9Y6L6); assay: In vitro transporter study; type: in vitro ADME
# Chain of OATP1B1 (Q9Y6L6 whole entry): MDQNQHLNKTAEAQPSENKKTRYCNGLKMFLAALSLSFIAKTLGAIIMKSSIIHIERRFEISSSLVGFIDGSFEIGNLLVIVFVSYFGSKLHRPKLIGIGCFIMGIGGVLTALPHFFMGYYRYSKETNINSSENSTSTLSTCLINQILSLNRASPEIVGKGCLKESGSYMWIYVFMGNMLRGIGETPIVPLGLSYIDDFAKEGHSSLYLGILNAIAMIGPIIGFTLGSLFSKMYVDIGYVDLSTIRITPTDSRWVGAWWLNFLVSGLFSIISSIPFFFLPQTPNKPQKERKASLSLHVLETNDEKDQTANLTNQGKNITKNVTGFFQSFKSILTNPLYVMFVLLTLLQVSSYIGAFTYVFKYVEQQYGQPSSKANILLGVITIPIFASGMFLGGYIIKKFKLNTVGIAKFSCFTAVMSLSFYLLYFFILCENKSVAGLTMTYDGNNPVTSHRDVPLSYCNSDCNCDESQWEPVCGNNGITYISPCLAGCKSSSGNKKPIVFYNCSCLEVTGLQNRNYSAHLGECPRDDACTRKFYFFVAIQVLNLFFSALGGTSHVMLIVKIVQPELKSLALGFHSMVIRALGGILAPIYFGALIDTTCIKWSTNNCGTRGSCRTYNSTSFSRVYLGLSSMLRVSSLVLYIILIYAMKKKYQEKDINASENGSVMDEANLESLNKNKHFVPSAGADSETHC
# human lymphocyte = assay: In vitro human lymphocyte micronucleus assay; type: cell-based
# Source text: (§1) Inavolisib was not mutagenic in the bacterial reverse mutation (Ames) assay. Inavolisib was clastogenic in an in vitro human lymphocyte micronucleus assay.
# rat bone marrow = assay: In vivo rat bone marrow micronucleus test
# CYP3A = assay: In vitro CYP450 study; type: in vitro ADME
# [3] = system: bacterial reverse mutation; assay: Bacterial reverse mutation (Ames) assay; type: cell-based
# Source text: as §1
# [4] = Clinical pharmacokinetics of inavolisib
# OAT3 = OAT3 (Homo sapiens, UniProt Q8TCC7); assay: In vitro transporter study; type: in vitro ADME
# CYP1A2 = CYP1A2 (Homo sapiens, UniProt P05177); assay: In vitro CYP450 study; type: in vitro ADME
# OCT2 = OCT2 (Homo sapiens, UniProt O15244); assay: In vitro transporter study; type: in vitro ADME
# Chain of OCT2 (O15244 whole entry): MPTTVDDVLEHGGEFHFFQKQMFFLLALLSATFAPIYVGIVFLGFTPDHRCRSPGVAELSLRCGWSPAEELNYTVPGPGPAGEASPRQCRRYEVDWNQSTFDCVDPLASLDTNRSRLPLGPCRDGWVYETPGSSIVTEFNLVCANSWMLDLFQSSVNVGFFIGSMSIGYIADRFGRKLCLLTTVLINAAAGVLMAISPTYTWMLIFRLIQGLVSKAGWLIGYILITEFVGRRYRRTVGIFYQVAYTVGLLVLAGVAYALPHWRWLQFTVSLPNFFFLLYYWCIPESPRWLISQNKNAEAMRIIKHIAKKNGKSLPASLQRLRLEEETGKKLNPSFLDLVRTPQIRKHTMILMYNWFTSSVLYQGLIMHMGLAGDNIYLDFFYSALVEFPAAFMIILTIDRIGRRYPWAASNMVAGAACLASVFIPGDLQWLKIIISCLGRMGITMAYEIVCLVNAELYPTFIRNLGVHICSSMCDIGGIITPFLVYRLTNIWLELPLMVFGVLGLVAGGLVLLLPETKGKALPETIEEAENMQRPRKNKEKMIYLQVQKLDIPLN
# PI3Kα = PI3Kα (Homo sapiens, UniProt P42336); assay: PI3K inhibition; type: biochemical
# CYP2C8 = CYP2C8 (Homo sapiens, UniProt P10632); assay: In vitro CYP450 study; type: in vitro ADME
# OAT1 = OAT1 (Homo sapiens, UniProt Q4U2R8); assay: In vitro transporter study; type: in vitro ADME
# dogs = assay: Repeat-dose toxicity studies in dogs; type: in vivo, dog
# [5] = system: PIK3CA-mutated, estrogen receptor-positive, breast cancer xenograft models; assay: Breast cancer xenograft models; type: in vivo; conditions: single agent
# [6] = system: PIK3CA-mutated breast cancer cell lines; assay: In vitro activity in breast cancer cell lines
# [7] = molecular target: breast cancer resistance protein (BCRP) (Homo sapiens, UniProt Q9UNQ0); assay: In vitro transporter study; type: in vitro ADME
# Chain of breast cancer resistance protein (BCRP) (Q9UNQ0 whole entry): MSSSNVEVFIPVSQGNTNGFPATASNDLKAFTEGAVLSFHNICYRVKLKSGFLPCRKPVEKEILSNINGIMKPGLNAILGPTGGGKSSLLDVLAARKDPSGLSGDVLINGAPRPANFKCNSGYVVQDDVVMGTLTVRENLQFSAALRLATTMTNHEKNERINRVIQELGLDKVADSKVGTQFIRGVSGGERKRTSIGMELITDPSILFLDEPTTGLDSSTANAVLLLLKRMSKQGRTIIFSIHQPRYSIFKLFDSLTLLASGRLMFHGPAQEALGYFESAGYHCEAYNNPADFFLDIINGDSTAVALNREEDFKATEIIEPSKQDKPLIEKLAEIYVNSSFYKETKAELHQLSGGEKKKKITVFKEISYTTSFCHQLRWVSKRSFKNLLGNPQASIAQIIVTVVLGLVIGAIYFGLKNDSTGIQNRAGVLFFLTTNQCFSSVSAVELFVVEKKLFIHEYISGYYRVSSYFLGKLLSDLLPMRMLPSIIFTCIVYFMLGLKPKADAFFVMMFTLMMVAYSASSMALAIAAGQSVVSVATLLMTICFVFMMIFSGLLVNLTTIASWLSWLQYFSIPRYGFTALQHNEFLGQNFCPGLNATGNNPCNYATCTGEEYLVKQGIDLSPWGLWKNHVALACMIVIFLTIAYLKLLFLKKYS
# OCT1 = OCT1 (Homo sapiens, UniProt O15245); assay: In vitro transporter study; type: in vitro ADME
# Chain of OCT1 (O15245 whole entry): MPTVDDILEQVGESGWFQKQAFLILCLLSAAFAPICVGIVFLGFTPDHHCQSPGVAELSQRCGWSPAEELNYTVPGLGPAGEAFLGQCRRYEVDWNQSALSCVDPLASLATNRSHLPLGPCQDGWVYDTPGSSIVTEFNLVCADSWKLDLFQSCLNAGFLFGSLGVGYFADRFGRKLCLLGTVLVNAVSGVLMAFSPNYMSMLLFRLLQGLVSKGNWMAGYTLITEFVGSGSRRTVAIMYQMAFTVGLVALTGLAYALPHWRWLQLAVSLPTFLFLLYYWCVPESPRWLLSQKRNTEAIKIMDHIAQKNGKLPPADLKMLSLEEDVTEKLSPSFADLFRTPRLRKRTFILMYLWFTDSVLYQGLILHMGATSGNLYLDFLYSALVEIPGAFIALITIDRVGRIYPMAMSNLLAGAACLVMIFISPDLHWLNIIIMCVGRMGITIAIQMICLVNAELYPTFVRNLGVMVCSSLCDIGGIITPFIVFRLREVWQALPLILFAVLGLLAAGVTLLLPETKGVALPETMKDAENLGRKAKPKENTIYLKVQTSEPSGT
# [8] = Plasma protein binding in vitro; type: in vitro ADME
# ER = conditions: cited from earlier work
smiles,measurement,setting,value
"CC(=O)c1c(C)c2cnc(Nc3ccc(N4CCNCC4)cn3)nc2n(C2CCCC2)c1=O [palbociclib, 6-acetyl-8-cyclopentyl-5-methyl-2-(5-(piperazin-1-yl)pyridin-2-ylamino)pyrido[2,3-d]pyrimidin-7(8H)-one]",Cycle delays,[1],68%
same,Dose holds,[1],70%
same,Patients requiring ≥1 dose reduction of palbociclib,[1],36%
same,Cycle delays,[2],36%
same,Dose holds,[2],54%
same,Patients requiring ≥1 dose reduction of palbociclib,[2],34%
CO[C@H]1C[C@@H]2CC[C@@H](C)[C@@](O)(O2)C(=O)C(=O)N2CCCC[C@H]2C(=O)O[C@H]([C@H](C)C[C@@H]2CC[C@@H](OCCO)[C@H](OC)C2)CC(=O)[C@H](C)/C=C(\C)[C@@H](O)[C@@H](OC)C(=O)[C@H](C)C[C@H](C)/C=C/C=C/C=C/1C [everolimus],Treatment discontinuation rate due to adverse events,patients with HR+ LA/mBC,19%
"C[C@H](Nc1ccc2c(c1)OCCn1cc(N3C(=O)OC[C@H]3C(F)F)nc1-2)C(N)=O [inavolisib, (S)-2-((2-((S)-4-(difluoromethyl)-2-oxooxazolidin-3-yl)-5,6-dihydrobenzo[f]imidazo[1,2-d][1,4]oxazepin-9-yl)amino)propanamide]",CYP2D6 inhibition,CYP2D6,does not inhibit
same,Developmental outcomes,pregnant rats; maternal exposures approximately equivalent to the human exposure at 9 mg/day,caused adverse developmental outcomes
same,"Dose resulting in decreased fetal body weight and placental weight, post-implantation loss, lower fetal viability, fetal malformations and variations","pregnant rats; oral, period of organogenesis",≥ 2 mg/kg/day
same,CYP2C9 inhibition,CYP2C9,does not inhibit
same,Mean increase in the QTc interval of ≥20 ms,QTc interval,unlikely
same,CYP2C19 inhibition,CYP2C19,does not inhibit
same,OAT2 substrate,OAT2,is not a substrate
same,Aqueous solubility,Aqueous solubility,pH-dependent aqueous solubility
same,MATE2K inhibition,MATE2K,does not inhibit
same,MATE2K substrate,MATE2K,is not a substrate
same,OATP1B3 inhibition,OATP1B3,does not inhibit
same,OATP1B3 substrate,OATP1B3,is not a substrate
same,MATE1 inhibition,MATE1,does not inhibit
same,MATE1 substrate,MATE1,is not a substrate
same,bioavailability,"clinical; in vivo, po",76%
same,clearance,"clinical; plasma, oral",147 mL/min
same,half-life,"clinical; plasma, oral",15 h
same,Vd/F,"clinical; plasma, po",155 L
same,DNA break,liver,did not induce DNA break
same,P-gp inhibition,P-glycoprotein (P-gp),does not inhibit
same,P-gp substrate,P-glycoprotein (P-gp),is a substrate
same,CYP2B6 induction,CYP2B6,induces
same,CYP2B6 inhibition,CYP2B6,does not inhibit
same,"Dose with atrophy in uterus and vagina, decreased ovarian follicles, estrous cycle alteration","rats; female rats, up to 3 months",≥ 3 mg/kg/day
same,Dose with atrophy of prostate and seminal vesicle and decreased male reproductive organ weights,rats; male rats,≥ 1.5 mg/kg/day
same,Dose with lens degeneration,"rats; rats, oral",10 mg/kg/day
same,OATP1B1 inhibition,OATP1B1,does not inhibit
same,OATP1B1 substrate,OATP1B1,is not a substrate
same,Clastogenicity,human lymphocyte,clastogenic
same,Genotoxicity,rat bone marrow,not genotoxic
same,CYP3A induction,CYP3A,induces
same,CYP3A inhibition,CYP3A,time-dependent inhibitor
same,Metabolism by CYP3A,CYP3A,minimally metabolized
same,Mutagenicity,[3],not mutagenic
same,Dose proportionality of steady-state AUC,[4]; 6 to 12 mg,proportional with dose
same,Effect of food on pharmacokinetics,[4]; high-fat meal,No clinically significant differences
same,Accumulation,"[4]; human, in vivo",approximately 2 fold
same,Metabolism,"[4]; human, in vivo",primarily metabolized by hydrolysis
same,"Pharmacokinetics by age, sex, race, body weight, or mild hepatic impairment","[4]; human, in vivo",No clinically significant differences
same,Steady-state pharmacokinetics with concomitant proton pump inhibitor,"[4]; human, in vivo",No clinically significant difference
same,Pharmacokinetics vs normal renal function,[4]; mild renal impairment,No clinically significant differences
same,AUC increase vs normal renal function,[4]; moderate renal impairment,73%
same,Time to attain steady-state concentrations,[4]; predicted,≤ 5 days
same,Administered dose recovered in feces,[4]; single oral radiolabeled dose,48%
same,Administered dose recovered in feces unchanged,[4]; single oral radiolabeled dose,11%
same,Administered dose recovered in urine,[4]; single oral radiolabeled dose,49%
same,Administered dose recovered in urine unchanged,[4]; single oral radiolabeled dose,40%
same,OAT3 inhibition,OAT3,does not inhibit
same,CYP1A2 inhibition,CYP1A2,does not inhibit
same,OCT2 inhibition,OCT2,does not inhibit
same,OCT2 substrate,OCT2,is not a substrate
same,PI3K isoform inhibitory activity,PI3Kα,inhibitory activity predominantly against PI3Kα
same,CYP2C8 inhibition,CYP2C8,does not inhibit
same,OAT1 inhibition,OAT1,does not inhibit
same,OAT1 substrate,OAT1,is not a substrate
same,Dose with lens cortex vacuolation,"dogs; dogs, oral",≥ 1 mg/kg/day
same,Dose with lens fiber swelling,"dogs; dogs, oral",≥ 0.3 mg/kg/day
same,Dose with decreased sperm count,"dogs; male dogs, 3 months",≥ 1 mg/kg/day
same,Dose with testis and epididymis findings,"dogs; male dogs, 4 weeks",≥ 1.5 mg/kg/day
same,Tumor growth,[5],reduced tumor growth; also recorded: inhibits tumor growth
same,Apoptosis,[6]; in vitro,induces apoptosis
same,Cellular proliferation,[6]; in vitro,reduced cellular proliferation; also recorded: inhibits proliferation
same,Degradation of mutated PI3K catalytic alpha subunit p110α,[6]; in vitro,induced the degradation; also recorded: specifically degrades mutant p110 alpha
same,Phosphorylation of the downstream target AKT,[6]; in vitro,inhibited phosphorylation
same,"Downstream PI3K-pathway markers, including pAKT, pPRAS40, and pS6",[6]; nonclinical studies,reduces downstream PI3K-pathway markers
same,BCRP inhibition,[7],does not inhibit
same,BCRP substrate,[7],is a substrate
same,OCT1 inhibition,OCT1,does not inhibit
same,OCT1 substrate,OCT1,is not a substrate
same,fraction unbound,[8],0.63
"C[C@]12CC[C@@H]3c4ccc(O)cc4C[C@@H](CCCCCCCCC[S+]([O-])CCCC(F)(F)C(F)(F)F)[C@H]3[C@@H]1CC[C@@H]2O (stereo partly drawn) [fulvestrant, (7α,17β)-7-{9-[(4,4,5,5,5-pentafluoropentyl)sulfinyl]nonyl}estra-1,3,5(10)-triene-3,17-diol]",Affinity for the ER relative to tamoxifen,ER,approximately 100 fold
Cc1nc(NC(=O)N2CCC[C@H]2C(N)=O)sc1-c1ccnc(C(C)(C)C(F)(F)F)c1 [alpelisib],Treatment discontinuation rate due to adverse events,patients with HR+ LA/mBC,25.0%
